“And” between values parts separate entries of the source, which are not always exact repeats. Equal entries are not always repeated. “Also recorded” adds a separate entry of the source. Marks after values point to notes of the source that are not given here.
Assays:
[1] = Co-factor experiment: microsome suspension with and without NADPH; format: in vitro ADME, human; details: degradation with and without addition of NADPH compared
Method: Therefore, additional experiments comparing stability with and without the addition of NADPH cofactor and a very short incubation period were performed (Tables S4 and S5). […] Due to the rapid observed degradation in microsomes, we decided to investigate the stability of five compounds in human plasma, aiming for a broad range of stabilities (Table 2, Table S6). It should be noted that esterase-labile compounds are notoriously difficult to study in microsomal stability studies.[36]
Table S3 Evaluation of metabolic stability in human microsomes
No. Metabolic stability Comment
4k <10/<10 Low retention in chromatography
8 <10/<10 Low retention in chromatography.
Table S4 Results from the modified microsome assay where degradation with and without the addition of NADPH was compared […]
4d Very low peak area for the first time point,
4e Very low peak area for the first time point,
4f Very low peak area for the first time point,
5 Very low peak area for the first time point,
8 No degradation without co -factor […]
metabolism by the microsomes (consisting mainly of cytochrome P450 enzymes) or if it was due to other factors, the compounds (with the exception of 4k) were incubated in the microsome suspension both with and without the addition of NADPH. Samples […]
were taken at three timepoints, and the degradation was compared to determine if it was dependent on NADPH. Compound 4k […]
without the addition of NADPH. […]
microsomes that need to be activated by a co -factor.
Table S5 Percent of peak area found in microsome suspension 15 seconds after the addition of NADPH in comparison with the same amount dissolved in H2O/EtOH
No. Area at 0.25 min. in Area in solution % found in microsomes/NADPH (125 nM) microsome
Comparison with compounds in solution. A comparison was made between the peak area of the compounds in solution with that obtained in the microsome suspension directly after the addition of NADPH (about 0.25 minutes) (Table S5). Before the addition of NADPH, the compounds are equilibrated in the microsome suspension for approximately five minutes. All compounds were prepared in solution by diluting a portion of the DMSO solutions with H2O/EtOH (75:25) to 125 nM (the final concentration of compounds for analysis in the microsome assay).
For the compounds where no results from the microsome assay could be reported due to low peak area (4d, 4e, 4f & 5), less than one percent of the expected peak area as compared with the area in solution was detected. […]
degrade rapidly before the addition of the co-factor after five minutes in incubation. For compounds 4g, 4h, 4i & 4j, which were […]
higher relative peak areas were found. […]
without NADPH was only found at 15% of the area seen in solution in the microsome suspension.

[2] = Stability in simulated stomach acid (0.10 M HCl); details: 0.10 M HCl (simulated stomach acid)
[3] = Metabolic stability in human microsomes; format: in vitro ADME; details: for Metabolic stability in human microsomes: 37 °C, 0.5 mg/mL protein, 1 μM compound, 1 mM NADPH; for Comment on microsome assay: Table S3
[4] = Chemical stability in 1.0 M NaHCO3 and 1.0 M HCl
[5] = Forced degradation of psilocin salts, oxidative (0.30% H2O2); details: for % psilocin remaining: 0.30% H2O2, after 24 h
[6] = Photolytic degradation of psilocin salts; details: for % psilocin remaining: after 14 days
[7] = Forced degradation of psilocin salts, acid (1.0 M HCl); details: for half-life at 2 mg/mL freebase psilocin: 1.0 M HCl (acid forced degradation); for % psilocin remaining / color: 1.0 M HCl; for % psilocin remaining: after 24 h compared with first measuring point at 1 h, LCMS; for color: visual inspection after 24 h, RT
[8] = Forced degradation of psilocin salts, base (0.10 M NaOH); details: for half-life at 24 h, 2 mg/mL freebase psilocin: 0.10 M NaOH (base forced degradation); for % psilocin remaining: 0.10 M NaOH, after 24 h
[9] = General observations of psilocin salts in solid form in −18 °C freezer; details: for stability (solid form): over 3 weeks in −18 °C freezer, visual inspection and LCMS; for hygroscopic: visual inspection
[10] = Thermal degradation of psilocin salts at 60 °C; details: for % psilocin remaining: after 6 days (143 h)
porcine liver esterase = experiment: Stability in FaSSIF supplemented with esterase; details: for % prodrug remaining, measured after 1 min: after 1 min at 20 IU/mL; for predicted half-life: at 270 IU/mL; for predicted abs.: calculated remaining prodrug available for GI absorption, predicted level after 5 min at 270 IU/mL (% remaining prodrug); for half-life at 0.292 mM: pig, FaSSIF supplemented with porcine liver esterase (20 IU/mL)
[11] = 0.30% H2O2 (oxidative forced degradation), half-life, 0.30% H2O2, RT
[12] = 0.30% H2O2 (oxidative forced degradation), half-life, 0.30% H2O2

| Compound | Co-factor experiment [1] | half-life at 5 mM [2] [h] | Metabolic stability in human microsomes [3] | Comment on microsome assay [3] | half-life at 2 mg/mL freebase psilocin [5, 11] [h] | % psilocin remaining [5] [%] | half-life at 336 h, 2 mg/mL freebase psilocin [6] [h] | % psilocin remaining ([6]; 12900 lx) [%] | half-life at 2 mg/mL freebase psilocin [7] [h] | % psilocin remaining [7] [%] | color [7] | half-life at 24 h, 2 mg/mL freebase psilocin [8] [h] | % psilocin remaining [8] [%] | stability (solid form) [9] | hygroscopic [9] | % psilocin remaining [10] [%] | half-life at 2 mg/mL freebase psilocin [10] [h] | half-life at 144 h, 2 mg/mL freebase psilocin [10] [h] | % prodrug remaining, measured after 1 min (porcine liver esterase) [%] | predicted half-life (porcine liver esterase) [s] | other results |
| --- | --- | --- | --- | --- | --- | --- | --- | --- | --- | --- | --- | --- | --- | --- | --- | --- | --- | --- | --- | --- | --- |
| CN(C)CCc1c[nH]c2cccc(OB(O)O)c12.O=C(O)/C=C/C(=O)O [Compound 5] | Very low peak area for the first time point, instability suspected | < 0.0833 | >200^a μL/min/mg protein and >200 μL/min/mg protein | Rapid degradation | – | – | – | – | – | – | – | – | – | – | – | – | – | – | – | – | half-life at 5 mM ([4]; 1.0 M HCl): < 5 min; half-life at 5 mM ([4]; 1.0 M NaHCO3): < 5 min |
| CN(C)CCc1c[nH]c2cccc(O)c12.O=C(O)c1ccccc1 [Compound 9c] | – | – | – | – | > 167 | 94 | 150 | 0 | > 167 | 100 | clear | 8.33 | 0 | stable enough to store as a solid in the freezer for an extended period; also recorded: no change | no | 0 | < 48 | 33.3 | – | – | time to complete breakdown ([6]; 12900 lx, RT): ≤ 1 week |
| COC(=O)Oc1cccc2[nH]cc(CCN(C)C)c12.O=C(O)/C=C/C(=O)O [Compound 4e] | Very low peak area for the first time point, instability suspected | > 167 | >200^a μL/min/mg protein and >200 μL/min/mg protein | Rapid degradation | – | – | – | – | – | – | – | – | – | – | – | – | – | – | 60 | 6 | % prodrug remaining, no esterase 30 min (porcine liver esterase; after 30 min with no esterase): 100%; predicted abs. (porcine liver esterase): 4.1 × 10^–13; half-life at 0.292 mM (porcine liver esterase): 84.6 ± 19.2 s; half-life at 24 h, 5 mM ([4]; 1.0 M HCl): 150 h; half-life at 24 h, 5 mM ([4]; 1.0 M NaHCO3): 16.7 h |
| CN(C)CCc1c[nH]c2cccc(O)c12.O=P(O)(O)O [Compound 9e] | – | – | – | – | – | 83 | 333 | 33 | > 167 | 94 | clear | 5 | 0 | darkens after 1 week | no | 0 | – | 66.7 | – | – | half-life at 2 mg/mL freebase psilocin [5, 12]: > 24 h; half-life at 24 h, 2 mg/mL freebase psilocin [5, 11]: 13.3 h |
| CN(C)CCc1c[nH]c2cccc(OC(=O)OCc3ccccc3)c12.O=C(O)/C=C/C(=O)O.O=CO [Compound 4f] | Very low peak area for the first time point, instability suspected | > 167 | >200^a μL/min/mg protein and >200 μL/min/mg protein | Rapid degradation | – | – | – | – | – | – | – | – | – | – | – | – | – | – | 21 | 1.8 | predicted abs. (porcine liver esterase): 6.6 × 10^–45; half-life at 0.292 mM (porcine liver esterase): 26.4 ± 2.4 s; half-life at 24 h, 5 mM ([4]; 1.0 M HCl): 100 h; half-life at 24 h, 5 mM ([4]; 1.0 M NaHCO3): 11.7 h |
| CN(C)CCc1c[nH]c2cccc(O)c12.O=C(O)C(F)(F)F [Compound 9f] | – | – | – | – | 33.3 | 78 | 167 | 22 | > 167 | 99 | clear | 15 | 0 | degrades within 3 days | highly hygroscopic and yes | 0 | < 48 | – | – | – | half-life at 2 mg/mL freebase psilocin [5, 12]: > 24 h |
